From ChEMBL document CHEMBL4725230, “Syntheses and pharmacokinetic evaluations of four metabolites of 2-(4-(2-((1H-benzo[d]imidazol-2-yl)thio)ethyl)piperazin-1-yl)-N-(6-methyl-2,4-bis-(methylthio)pyridin-3-yl)acetamide hydrochloride [K-604], an acyl-CoA:cholesterol O-acyltransferase-1 inhibitor” (Bioorg Med Chem, 2020) come the findings set out here.

The nature of the series: Retention time of the compound in human liver microsomes after 5 mins in presence of NADPH by LC-MS/MS analysis. The series is classed as ADME, Microsome. (In general: Liver microsomes are a subcellular fraction often used to study metabolism.)

In the case of `CSc1nc(C)cc([S+](C)[O-])c1NC(=O)CN1CCN(CCSc2nc3ccccc3[nH]2)CC1` (stereo unspecified), the Retention_time is reported as 3.37 min.
